Laboratory results reported in patent US10919896B2, “Preparation and uses of pyrimidinone derivatives” (Cancer Research Technology Limited, priority 2016, dated 2021).
Counter-ions that a name gives are not always drawn. Like-named read-outs stand apart in the source and are kept apart here.

Assays:
[1] = system: Cdc7 (pS53MCM2 levels in SW48 cells); test: Cdc7 Cell Pharmacodynamics Assay Method 3: pS53MCM2 levels in SW48 cells, 6 hours; format: cell-based; conditions: for EC50: Homo sapiens, SW48, 6 h, read-out: Biomarker Method 3 (pEC50) (converted)
Cdc7/ASK = Cdc7/ASK (Homo sapiens, UniProt O00311); test: Cdc7 Biochemical Assay Method 4: off-chip mobility shift assay (Carna Biosciences); set-up: purchased Carna Biosciences; host or cells: baculovirus expression system; conditions: off-chip MSA, MCM2 peptide, 5 hours; read-out: Biochemical Method 4 (pIC50) (converted)
Cdc7/ASK, sequence (O00311 whole entry): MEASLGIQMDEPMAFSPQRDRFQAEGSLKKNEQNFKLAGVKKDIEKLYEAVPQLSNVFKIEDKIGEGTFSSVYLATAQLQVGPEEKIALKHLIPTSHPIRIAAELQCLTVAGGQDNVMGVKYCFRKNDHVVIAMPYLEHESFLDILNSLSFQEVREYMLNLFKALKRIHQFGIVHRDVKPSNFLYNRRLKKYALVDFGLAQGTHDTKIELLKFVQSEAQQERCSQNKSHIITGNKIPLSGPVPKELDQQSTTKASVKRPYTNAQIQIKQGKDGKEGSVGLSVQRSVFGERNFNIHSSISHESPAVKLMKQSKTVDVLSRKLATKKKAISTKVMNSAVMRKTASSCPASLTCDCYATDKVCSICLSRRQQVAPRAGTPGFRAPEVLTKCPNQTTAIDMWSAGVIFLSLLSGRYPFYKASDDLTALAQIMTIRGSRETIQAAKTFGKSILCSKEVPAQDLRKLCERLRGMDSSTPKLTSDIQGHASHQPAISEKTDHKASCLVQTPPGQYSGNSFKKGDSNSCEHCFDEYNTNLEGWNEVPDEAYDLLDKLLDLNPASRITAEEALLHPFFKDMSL
Cdc7/ASK, sequence (Q9UBU7 whole entry partner): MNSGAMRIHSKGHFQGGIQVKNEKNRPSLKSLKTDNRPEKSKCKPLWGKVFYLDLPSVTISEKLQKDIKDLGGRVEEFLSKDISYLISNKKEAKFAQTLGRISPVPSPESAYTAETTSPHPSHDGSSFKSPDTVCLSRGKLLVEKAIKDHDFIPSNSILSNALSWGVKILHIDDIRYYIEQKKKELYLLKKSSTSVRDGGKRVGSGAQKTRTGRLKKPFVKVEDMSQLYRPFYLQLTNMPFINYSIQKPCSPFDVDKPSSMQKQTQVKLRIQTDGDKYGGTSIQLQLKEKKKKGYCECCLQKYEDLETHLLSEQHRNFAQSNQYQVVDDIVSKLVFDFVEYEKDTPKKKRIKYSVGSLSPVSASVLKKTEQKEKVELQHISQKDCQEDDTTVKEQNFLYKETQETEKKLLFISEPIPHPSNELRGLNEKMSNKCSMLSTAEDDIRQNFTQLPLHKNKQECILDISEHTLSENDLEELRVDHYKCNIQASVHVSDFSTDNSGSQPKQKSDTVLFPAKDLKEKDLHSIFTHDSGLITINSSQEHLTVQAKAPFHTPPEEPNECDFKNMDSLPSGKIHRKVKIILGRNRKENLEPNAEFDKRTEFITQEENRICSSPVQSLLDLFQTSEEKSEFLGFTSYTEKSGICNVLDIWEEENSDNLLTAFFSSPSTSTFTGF
Protocol: This protocol describes a method for assaying Cdc7/ASK for activity. The assay is an off-chip mobility shift assay (MSA) run at Carna Biosciences.
1. Preparation of Test Compound Solution.
The test compound was dissolved in and diluted with dimethylsulfoxide (DMSO) to achieve 100-fold higher concentration which was specified by the sponsor. Then the solution was further 25-fold diluted with assay buffer to make the final test compound solution. Reference compounds for assay control were prepared similarly.
Cdc7/ASK: Full-length human Cdc7 [1-574(end) amino acids of accession number NP_003494.1] was co-expressed as N-terminal GST-fusion protein (92 kDa) with Dbf4(ASK) [1-674(end) amino acids of accession number NP_006707.1] using baculovirus expression system. GST-Cdc7 was purified by using glutathione sepharose chromatography.
3. Assay Reagents and Procedures
Off-chip Mobility Shift Assay (MSA)
1) The […] of ×2 kinase solution were prepared with assay buffer (20 mM HEPES, 0.01% Triton X-100, 1 mM DTT, pH 7.5) and mixed and incubated in a well of polypropylene 384 well microplate for 5 hours at room temperature. 2) […] of Termination Buffer (QuickScout Screening Assist MSA; Carna Biosciences) was added to the well. 3) The reaction mixture was applied to LabChip system (Perkin Elmer), and the product and substrate peptide peaks were separated and quantitated. 4) The kinase reaction was evaluated by the product ratio calculated from peak heights of product (P) and substrate (S) peptides (P/(P+S)).
Reaction time is 5 hours.
The readout value of reaction control (complete reaction mixture) was set as a 0% inhibition, and the readout value of background (Enzyme(−)) was set as a 100% inhibition, then the percent inhibition of each test solution was calculated.
IC50 value was calculated from concentration vs. % Inhibition curves by fitting to a four parameter logistic curve.

Row | Compound | EC50 [1] | IC50 (Cdc7/ASK) | Biomarker Method 3 (pEC50) [1] | Biomarker Method 3 (pEC50) ([1]; hydrochloride)
1 | CC(F)(F)C1CNCCN1c1nc(-c2ccnc(F)c2)[nH]c(=O)c1Cl (centres unmarked) [Compound 392] | 5750 nM | 38.9 nM |  | 
2 | Cl.O=c1[nH]c(-c2ccnc(F)c2)nc(N2CCNCC2C(F)F)c1Cl (single isomer, unassigned) [Compound 390] |  | 4.27 nM | 6.97 | 
3 | O=c1[nH]c(-c2ccnc(F)c2)nc(N2CCNCC(F)C2)c1Cl (centres unmarked) [Compound 373] | 389 nM | 5.25 nM |  | 
4 | CC(C)(F)C1CN(c2nc(-c3ccnc(F)c3)[nH]c(=O)c2Cl)CCN1 (single isomer, unassigned) [Compound 382, 5-chloro-4-[3-(1-fluoro-1-methyl-ethyl)piperazin-1-yl]-2-(2-fluoro-4-pyridyl)-1H-pyrimidin-6-one hydrochloride] |  | 11.7 nM |  | 6.16
5 | C[C@H]1CN[C@@H](C(F)(F)F)CN1c1nc(-c2ccnc(F)c2)[nH]c(=O)c1Cl.Cl (single isomer, unassigned) [Compound 396, Cis-5-chloro-2-(2-fluoro-4-pyridyl)-4-[2-methyl-5-(trifluoromethyl)piperazin-1-yl]-1H-pyrimidin-6-one hydrochloride] |  | 135 nM |  | 5.11
6 | O=c1[nH]c(-c2ccncc2F)nc(N2CCNCC(F)(F)C2)c1Cl [Compound 399, 5-chloro-4-(6,6-difluoro-1,4-diazepan-1-yl)-2-(3-fluoro-4-pyridyl)-1H-pyrimidin-6-one hydrochloride] | 1660 nM | 12.6 nM |  | 
7 | Cl.O=c1[nH]c(-c2ccnc(F)c2)nc(N2CCNCC2C(F)(F)F)c1Cl (single isomer, unassigned) [Compound 384] |  | 42.7 nM | 5.33 | 
8 | O=c1[nH]c(-c2ccncc2)nc(N2CCNCC2C(F)F)c1Cl (centres unmarked) [Compound 391] | 3550 nM | 35.5 nM |  | 
9 | Cl.O=c1[nH]c(-c2ccnc(F)c2)nc(N2CCNCC(C(F)(F)F)C2)c1Cl (centres unmarked) [Compound 385] |  | 11.5 nM | 5.87 | 
10 | O=c1[nH]c(-c2ccnc(F)c2)nc(N2CCNCC2C(F)F)c1Cl (centres unmarked) [Compound 376] | 141 nM | 5.5 nM |  | 
11 | C[C@H]1CN[C@@H](C(F)(F)F)CN1c1nc(-c2ccnc(F)c2)[nH]c(=O)c1Cl.Cl (single isomer, unassigned) [Compound 395, Cis-5-chloro-2-(2-fluoro-4-pyridyl)-4-[2-methyl-5-(trifluoromethyl)piperazin-1-yl]-1H-pyrimidin-6-one hydrochloride] |  | 7.76 nM |  | 5.67
12 | Cl.O=c1[nH]c(-c2ccncc2)nc(N2CCNCC2C(F)(F)F)c1Cl (single isomer, unassigned) [Compound 388] |  | 91.2 nM | 5.29 | 
13 | O=c1[nH]c(-c2ccnc(F)c2)nc(N2CCNCC(F)C2)c1Cl (single isomer, unassigned) [Compound 380, 5-chloro-4-(6-fluoro-1,4-diazepan-1-yl)-2-(2-fluoro-4-pyridyl)-1H-pyrimidin-6-one hydrochloride] |  | 3.98 nM |  | 6.70
14 | Cl.O=c1[nH]c(-c2ccnc(F)c2)nc(N2CCNCC2C(F)(F)F)c1Cl (single isomer, unassigned) [Compound 383] |  | 4.47 nM | 6.67 | 
15 | O=c1[nH]c(-c2ccnc(F)c2)nc(N2CCNCC(C(F)(F)F)C2)c1Cl (centres unmarked) [Compound 375] | 1230 nM | 7.41 nM |  | 
16 | O=c1[nH]c(-c2ccnc(F)c2)nc(N2CCNCC(F)C2)c1Cl (single isomer, unassigned) [Compound 379, 5-chloro-4-(6-fluoro-1,4-diazepan-1-yl)-2-(2-fluoro-4-pyridyl)-1H-pyrimidin-6-one hydrochloride] |  | 7.94 nM |  | 5.88
17 | CC(C)(F)C1CN(c2nc(-c3ccnc(F)c3)[nH]c(=O)c2Cl)CCN1 (single isomer, unassigned) [Compound 381, 5-chloro-4-[3-(1-fluoro-1-methyl-ethyl)piperazin-1-yl]-2-(2-fluoro-4-pyridyl)-1H-pyrimidin-6-one hydrochloride] |  | 70.8 nM |  | 5.32
18 | O=c1[nH]c(-c2ccnc(F)c2)nc(N2CCNCC2C(F)(F)F)c1Cl (centres unmarked) [Compound 313, 5-chloro-2-(2-fluoro-4-pyridyl)-4-[2-(trifluoromethyl)piperazin-1-yl]-1H-pyrimidin-6-one hydrochloride] | 759 nM | 8.51 nM |  | 
19 | O=c1[nH]c(-c2ccncc2)nc(N2CCNCC(F)(F)C2)c1Cl [Compound 374] | 437 nM | 5.75 nM |  | 
20 | CN1CCN(c2nc(-c3ccnc(F)c3)[nH]c(=O)c2Cl)CC(F)(F)C1 [Compound 415, 5-chloro-4-(6,6-difluoro-4-methyl-1,4-diazepan-1-yl)-2-(2-fluoro-4-pyridyl)-1H-pyrimidin-6-one] | 708 nM | 9.33 nM |  | 
21 | O=c1[nH]c(-c2ccnc(Cl)c2)nc(N2CCNCC(F)(F)C2)c1Cl [Compound 401] | 437 nM | 4.79 nM |  | 
22 | O=c1[nH]c(-c2ccnc(F)c2)nc(N2CCNCC23CC3)c1Cl [Compound 377] | 148 nM | 4.37 nM |  | 
